Tested on: 565726-208-R1-J5-PDC complex spheroids, growth inhibition
Experiment: Anticancer human tumor 565726-208-R1-J5-PDC patient-derived pancreatic adenocarcinoma cell line growth inhibition [RAS]
Conditions: for IC50: curve of first compound; for viability, T/C: stronger effect = lower value
Procedure, shortened: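 Multi-cell-type spheroids: tumor cells plus HUVEC endothelial cells and mesenchymal stem cells. RAS-pathway inhibitors were combined with targeted agents, each dosed in half-log steps down from clinical Cmax, or from 10 microM when Cmax was unknown.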

[1] = second compound 0.00316 µM, first compound 0.0316 µM
[2] = second compound 0.00316 µM, first compound 0.1 µM
[3] = second compound 0.01 µM, first compound 0.0316 µM
[4] = second compound 0.01 µM, first compound 0.1 µM
[5] = second compound 0.0316 µM, first compound 0.0316 µM
[6] = second compound 0.0316 µM, first compound 0.1 µM
[7] = second compound 0.1 µM, first compound 0.0316 µM
[8] = second compound 0.1 µM, first compound 0.1 µM
[9] = second compound 0.316 µM, first compound 0.0316 µM
[10] = second compound 0.316 µM, first compound 0.1 µM
[11] = second compound 1 µM, first compound 0.0316 µM
[12] = second compound 1 µM, first compound 0.1 µM
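Also: spheroids exposed to compounds for seven days before readout.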
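For viability, T/C in this document: 100% = DMSO vehicle control viability.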

**Q.** `CC(C)n1nc(-c2ccc3oc(N)nc3c2)c2c(N)ncnc21` + C=CC(=O)N1CCN(c2nc(OCC3CCCN3C)nc3c(F)c(-c4nc(N)cc(C)c4C(F)(F)F)c(Cl)cc23)C(C)C1 was tested. Which IC50 (second compound 0.00316 µM) did it give?
**A.** The IC50 was 100 nM.

**Q.** And the IC50 (second compound 0.01 µM)?
**A.** The IC50 was 25.2 nM.

**Q.** And the IC50 (second compound 0.0316 µM)?
**A.** Its IC50 is 44.9 nM.

**Q.** What about the IC50 (second compound 0.1 µM) of the same compound?
**A.** Its IC50 is 59.1 nM.

**Q.** And the IC50 (second compound 0.316 µM)?
**A.** The IC50 was 100 nM.

**Q.** What about the IC50 (second compound 1 µM) of the same compound?
**A.** The IC50 was 80.9 nM.

**Q.** And the viability, T/C (second compound 0.00316 µM, first compound 0.000316 µM)?
**A.** The viability, T/C was 93%.

**Q.** What about the viability, T/C (second compound 0.00316 µM, first compound 0.001 µM) of the same compound?
**A.** Its viability, T/C is 138%.

**Q.** And the viability, T/C (second compound 0.00316 µM, first compound 0.00316 µM)?
**A.** Its viability, T/C is 70.2%.

**Q.** And the viability, T/C (second compound 0.00316 µM, first compound 0.01 µM)?
**A.** The viability, T/C was 62.3%.

**Q.** And the viability, T/C [1]?
**A.** The viability, T/C was 57.1%.

**Q.** What about the viability, T/C [2] of the same compound?
**A.** The viability, T/C was 42%.

**Q.** And the viability, T/C (second compound 0.01 µM, first compound 0.000316 µM)?
**A.** Its viability, T/C is 93.5%.

**Q.** And the viability, T/C (second compound 0.01 µM, first compound 0.001 µM)?
**A.** Its viability, T/C is 132%.

**Q.** And the viability, T/C (second compound 0.01 µM, first compound 0.00316 µM)?
**A.** The viability, T/C was 96.7%.

**Q.** And the viability, T/C (second compound 0.01 µM, first compound 0.01 µM)?
**A.** The viability, T/C was 68.2%.

**Q.** What about the viability, T/C [3] of the same compound?
**A.** The viability, T/C was 48.2%.

**Q.** And the viability, T/C [4]?
**A.** The viability, T/C was 39.5%.

**Q.** What about the viability, T/C (second compound 0.0316 µM, first compound 0.000316 µM) of the same compound?
**A.** Its viability, T/C is 99.8%.

**Q.** What about the viability, T/C (second compound 0.0316 µM, first compound 0.001 µM) of the same compound?
**A.** Its viability, T/C is 148%.

**Q.** What about the viability, T/C (second compound 0.0316 µM, first compound 0.00316 µM) of the same compound?
**A.** The viability, T/C was 81.7%.

**Q.** And the viability, T/C (second compound 0.0316 µM, first compound 0.01 µM)?
**A.** Its viability, T/C is 78.3%.

**Q.** What about the viability, T/C [5] of the same compound?
**A.** Its viability, T/C is 55.5%.

**Q.** What about the viability, T/C [6] of the same compound?
**A.** Its viability, T/C is 41.1%.

**Q.** And the viability, T/C (second compound 0.1 µM, first compound 0.000316 µM)?
**A.** Its viability, T/C is 107%.

**Q.** What about the viability, T/C (second compound 0.1 µM, first compound 0.001 µM) of the same compound?
**A.** Its viability, T/C is 121%.

**Q.** What about the viability, T/C (second compound 0.1 µM, first compound 0.00316 µM) of the same compound?
**A.** Its viability, T/C is 86.5%.

**Q.** And the viability, T/C (second compound 0.1 µM, first compound 0.01 µM)?
**A.** Its viability, T/C is 70.8%.

**Q.** What about the viability, T/C [7] of the same compound?
**A.** Its viability, T/C is 65.7%.

**Q.** And the viability, T/C [8]?
**A.** The viability, T/C was 40.3%.

**Q.** What about the viability, T/C (second compound 0.316 µM, first compound 0.000316 µM) of the same compound?
**A.** Its viability, T/C is 87.1%.

**Q.** What about the viability, T/C (second compound 0.316 µM, first compound 0.001 µM) of the same compound?
**A.** Its viability, T/C is 126%.

**Q.** And the viability, T/C (second compound 0.316 µM, first compound 0.00316 µM)?
**A.** Its viability, T/C is 70.7%.

**Q.** And the viability, T/C (second compound 0.316 µM, first compound 0.01 µM)?
**A.** Its viability, T/C is 68.7%.

**Q.** And the viability, T/C [9]?
**A.** The viability, T/C was 49.7%.

**Q.** And the viability, T/C [10]?
**A.** Its viability, T/C is 46%.

**Q.** What about the viability, T/C (second compound 1 µM, first compound 0.000316 µM) of the same compound?
**A.** The viability, T/C was 79.9%.

**Q.** What about the viability, T/C (second compound 1 µM, first compound 0.001 µM) of the same compound?
**A.** The viability, T/C was 96.3%.

**Q.** And the viability, T/C (second compound 1 µM, first compound 0.00316 µM)?
**A.** Its viability, T/C is 97.7%.

**Q.** And the viability, T/C (second compound 1 µM, first compound 0.01 µM)?
**A.** Its viability, T/C is 65.6%.

**Q.** What about the viability, T/C [11] of the same compound?
**A.** The viability, T/C was 65%.

**Q.** And the viability, T/C [12]?
**A.** Its viability, T/C is 45.2%.

**Q.** How did the IC50 (second compound 0.00316 µM) turn out when `C[C@@H](NC(=O)c1ncnc(N)c1Cl)c1ncc(C(=O)Nc2cc(C(F)(F)F)c(Cl)cn2)s1` + C=CC(=O)N1CCN(c2nc(OCC3CCCN3C)nc3c(F)c(-c4nc(N)cc(C)c4C(F)(F)F)c(Cl)cc23)C(C)C1 was run?
**A.** Its IC50 is greater than 10000 nM.

**Q.** And the IC50 (second compound 0.01 µM)?
**A.** The IC50 was greater than 10000 nM.

**Q.** And the IC50 (second compound 0.0316 µM)?
**A.** The IC50 was greater than 10000 nM.

**Q.** What about the IC50 (second compound 0.1 µM) of the same compound?
**A.** Its IC50 is greater than 10000 nM.

**Q.** What about the IC50 (second compound 0.316 µM) of the same compound?
**A.** The IC50 was greater than 10000 nM.

**Q.** And the IC50 (second compound 1 µM)?
**A.** The IC50 was greater than 10000 nM.

**Q.** And the viability, T/C [1]?
**A.** Its viability, T/C is 119%.

**Q.** What about the viability, T/C [2] of the same compound?
**A.** The viability, T/C was 151%.

**Q.** And the viability, T/C (second compound 0.00316 µM, first compound 0.316 µM)?
**A.** The viability, T/C was 88.8%.

**Q.** What about the viability, T/C (second compound 0.00316 µM, first compound 1 µM) of the same compound?
**A.** The viability, T/C was 98.3%.

**Q.** What about the viability, T/C (second compound 0.00316 µM, first compound 3.16 µM) of the same compound?
**A.** Its viability, T/C is 77.7%.

**Q.** And the viability, T/C (second compound 0.00316 µM, first compound 10 µM)?
**A.** Its viability, T/C is 78.3%.

**Q.** And the viability, T/C [3]?
**A.** Its viability, T/C is 95.5%.

**Q.** What about the viability, T/C [4] of the same compound?
**A.** The viability, T/C was 140%.

**Q.** What about the viability, T/C (second compound 0.01 µM, first compound 0.316 µM) of the same compound?
**A.** The viability, T/C was 94.5%.

**Q.** What about the viability, T/C (second compound 0.01 µM, first compound 1 µM) of the same compound?
**A.** The viability, T/C was 89.1%.

**Q.** And the viability, T/C (second compound 0.01 µM, first compound 3.16 µM)?
**A.** The viability, T/C was 91.9%.

**Q.** What about the viability, T/C (second compound 0.01 µM, first compound 10 µM) of the same compound?
**A.** The viability, T/C was 67.8%.

**Q.** And the viability, T/C [5]?
**A.** The viability, T/C was 115%.

**Q.** What about the viability, T/C [6] of the same compound?
**A.** Its viability, T/C is 129%.

**Q.** And the viability, T/C (second compound 0.0316 µM, first compound 0.316 µM)?
**A.** The viability, T/C was 92.8%.

**Q.** What about the viability, T/C (second compound 0.0316 µM, first compound 1 µM) of the same compound?
**A.** Its viability, T/C is 99.3%.

**Q.** And the viability, T/C (second compound 0.0316 µM, first compound 3.16 µM)?
**A.** The viability, T/C was 88.2%.

**Q.** And the viability, T/C (second compound 0.0316 µM, first compound 10 µM)?
**A.** The viability, T/C was 70.9%.

**Q.** What about the viability, T/C [7] of the same compound?
**A.** Its viability, T/C is 120%.

**Q.** What about the viability, T/C [8] of the same compound?
**A.** Its viability, T/C is 123%.

**Q.** And the viability, T/C (second compound 0.1 µM, first compound 0.316 µM)?
**A.** Its viability, T/C is 102%.

**Q.** And the viability, T/C (second compound 0.1 µM, first compound 1 µM)?
**A.** The viability, T/C was 97.2%.

**Q.** What about the viability, T/C (second compound 0.1 µM, first compound 3.16 µM) of the same compound?
**A.** The viability, T/C was 98.7%.

**Q.** And the viability, T/C (second compound 0.1 µM, first compound 10 µM)?
**A.** Its viability, T/C is 83.4%.

**Q.** And the viability, T/C [9]?
**A.** The viability, T/C was 86.7%.

**Q.** And the viability, T/C [10]?
**A.** The viability, T/C was 128%.

**Q.** And the viability, T/C (second compound 0.316 µM, first compound 0.316 µM)?
**A.** Its viability, T/C is 104%.

**Q.** And the viability, T/C (second compound 0.316 µM, first compound 1 µM)?
**A.** The viability, T/C was 101%.

**Q.** And the viability, T/C (second compound 0.316 µM, first compound 3.16 µM)?
**A.** Its viability, T/C is 106%.

**Q.** And the viability, T/C (second compound 0.316 µM, first compound 10 µM)?
**A.** Its viability, T/C is 76.9%.

**Q.** And the viability, T/C [11]?
**A.** The viability, T/C was 89.1%.

**Q.** What about the viability, T/C [12] of the same compound?
**A.** Its viability, T/C is 120%.

**Q.** What about the viability, T/C (second compound 1 µM, first compound 0.316 µM) of the same compound?
**A.** The viability, T/C was 108%.

**Q.** And the viability, T/C (second compound 1 µM, first compound 1 µM)?
**A.** The viability, T/C was 114%.

**Q.** What about the viability, T/C (second compound 1 µM, first compound 3.16 µM) of the same compound?
**A.** The viability, T/C was 86.4%.

**Q.** What about the viability, T/C (second compound 1 µM, first compound 10 µM) of the same compound?
**A.** Its viability, T/C is 74.6%.

From PubChem BioAssay AID2060899 (Molecular Pharmacology Branch, DTP, NCI, 2025)
